# What was measured:
# [1] = test system: Kentucky bluegrass, velvetleaf, foxtail, tomato, potato and snapbeans
# Description: (§1) The herbicides were applied in the “spray to drip” amount or at a calibrated 20-60 gallons/acre. “Spray to drip” is an uncalibrated application of fluid to foliage, where sufficient spray volume is used to sufficiently saturate the foliage surface until excess fluid begins to drip from the foliage.
# [2] = test system: 60 G/a: lambsquarter, pigweed, velvetleaf and foxtail; spray to drip: velvetleaf and foxtail; test: Herbicidal activity of caprylic acid combined with salts of succinate +/- sodium salicylate; format: in vivo
# Description: as §1
# [3] = test system: 60 G/a: black nightshade, redroot pigweed, lambsquarter, foxtail, velvetleaf and snapbeans; spray to drip: redroot pigweed, lambsquarter, velvetleaf and …; test: Efficacy of 2% caprylic with succinic or ammonium succinate in an emulsification system (Emsorb 6900); format: in vivo
# Description: as §1
# [4] = test system: young potato plants; test: Effects of desiccants and desiccant combinations with other compounds on young potato plants; format: in vivo; design: All evaluations (total score): scale not given here
# Description: as §1
# [5] = test system: 60 G/a: lambsquarter, foxtail and velvetleaf; spray to drip: snapbeans, corn and tomatoes; test: Succinic acid enhancement of oleic acid/sodium salicylate herbicidal activity (60 G/a and spray to drip); format: in vivo
# Description: as §1
# [6] = test system: lambsquarter, velvetleaf, foxtail, nutsedge and potatoes; test: Succinic acid enhancement of oleic acid/sodium salicylate herbicidal activity (spray to drip); format: in vivo
# Description: as §1
# [7] = test system: mixed weed varieties; Canadian thistle; test: Field trial comparisons of caprylic/capric and pelargonic acids on mixed weed varieties (Example 58); format: in vivo; details: rating 1-5 for each of 2 plots per treatment group, 5 = complete desiccation
# Description: as §1
# [8] = test system: 60 G/a: velvetleaf, black nightshade, redroot pigweed, foxtail and snapbeans; spray to drip: black nightshade, velvetleaf, foxtail and snapbeans; test: Efficacy of 1.5% succinic acid with oleic, caprylic or pelargonic acid in an emulsification system (Emsorb 6900); format: in vivo; design: Injury rating, total score for 2 evaluation, Spray to drip / Injury rating, total score for 2 evaluation, Total Rating: scale not given here
# Description: as §1
# [9] = test system: mixed weed varieties; test: Field trial comparisons of caprylic/capric and pelargonic acids on mixed weed varieties (Example 57); format: in vivo; details: rating 1-5 for each of 2 plots per treatment group, 5 = complete desiccation; grasses (dominant), dandelion, pigweed, plantain and Canadian thistle
# Description: as §1
# [10] = test system: Redwood pigweed; test: Field trial comparisons of caprylic/capric and pelargonic acids, redroot pigweed (Example 58); format: in vivo; details: rating 1-5 for each of 2 plots per treatment group, 5 = complete desiccation
# [11] = test system: Turf and Covergrass; test: Effects of various compounds on caprylic acid, testing turf and covergrass; format: in vivo; details: 1, 3, 6, 7 and 11 days after a single foliar application at two independent sites, 5 equals profound desiccation
# Description: as §1
# [12] = test system: soybeans; test: Synergistic relationships between succinic acid and caprylic acid at different application rates, testing soybeans; format: in vivo; details: 2 days after a single foliar application, average of 2 sites, soybean Stine 2250; for Overall Effect: 5 equals profound desiccation
# Description: as §1
# [13] = test system: Turf; test: Synergistic relationships between succinic acid and caprylic acid (or sodium salicylate), testing turf; format: in vivo; details: 2 days after a single foliar application, 5 equals profound desiccation
# Description: as §1
# [14] = test system: Turf and Shrub Foliage; test: Effects of various compounds on caprylic acid, testing turf and shrub foliage; format: in vivo; details: 3, 4, 6 and 7 days after a single foliar application, 5 equals profound desiccation
# Description: as §1
# [15] = Measurement of pH values for test desiccants (Example 56); format: physicochemical
# [16] = Measurement of pH values for test desiccants (Example 55); format: physicochemical
# [17] = test system: soybeans; test: Synergistic relationships: succinic acid + caprylic acid, succinic acid + sodium salicylate, testing soybeans; format: in vivo; details: 3 days after a single foliar application, soybean Stine 2250
# Description: as §1
# [18] = test system: Turf and Shrub Foliage; details: 1, 2, 4 and 7 days after a single foliar application, 5 equals profound desiccation
# Description: as §1
# [19] = test system: Cotton; details: 2 days after a single foliar application
# Description: as §1
# [20] = test system: Cotton (DeltaPine NuCotn 33b); test: Synergistic relationship between caprylic/capric (c/c) and succinic acid as harvest aids, cotton; format: in vivo; details: footnote; cotton and potatoes
# Description: (§2) The herbicides were applied in the “spray to drip” amount or at a calibrated 20-60 gallons/acre. “Spray to drip” is an uncalibrated application of fluid to foliage, where sufficient spray volume is used to sufficiently saturate the foliage surface until excess fluid begins to drip from the foliage. In general, about 5 to 200 gallons/acre, preferably 20-100 gallons/acre can be effective.
# [21] = test system: cotton (DeltaPine NuCotn 33b), potatoes (Snowden), pigweed, sudan grass, wheat, foxtail, dry beans and velvetleaf; test: Synergistic relationships between 5% caprylic/capric (c/c) and succinic acid; format: in vivo; details: footnote
# Description: as §2
# [22] = test system: cotton (DeltaPine NuCotn 33b) foliage; test: Herbicidal activity on cotton foliage: succinic acid and caprylic/capric acid (c/c) combinations; format: in vivo; details: footnote
# Description: as §2
# [23] = test system: 60 G/a: redroot pigweed, foxtail and velvetleaf; spray to drip: foxtail, dry beans and pigweed; test: Herbicidal activity: caprylic acid and succinic acid +/- ammonium sulfate; format: in vivo; details: footnote
# Description: as §1
# [24] = test system: Kentucky bluegrass, barnyard grass, crab grass, pigweed, redtop, nutsedge, wheat and foxtail; test: Enhancement of RoundUp Ultra (+/- ammonium sulfate) by succinic acid, 1 pint/acre, no surfactant; format: in vivo; details: footnote
# Description: as §1
# [25] = test system: 40 G/a: crab grass, chickweed and common lambsquarter; 60 G/a: redtop, pigweed, foxtail; spray to drip: barnyard grass, foxtail, sudan grass and nutsedge; test: Herbicidal combinations of caprylic/capric (c/c) or pelargonic acid with equimolar succinic acid and ammonium succinate, on weed varieties; format: in vivo; details: footnote
# [26] = test system: 60 G/a: redroot pigweed, velvetleaf, snapbeans, cotton and potatoes; spray to drip: black nightshade, lambsquarter, foxtail and snapbeans; details: footnote
# Description: as §1
# [27] = test system: 60 G/a: nightshade, pigweed, foxtail barnyard grass, sudan grass and cotton (DeltaPine NuCotn 33b); spray to drip: Kentucky bluegrass, nutsedge, barnyard …; test: Herbicidal activities: succinic acid and caprylic/capric acid (c/c) combinations; format: in vivo; details: footnote
# Description: as §2
# [28] = test system: barnyard grass, green foxtail, sudan grass and pigweed; test: Enhancement of RoundUp Ultra (+/- ammonium sulfate) by succinic acid, 1 pint/acre, with Sylgard 309; format: in vivo; details: footnote
# Description: as §1
# [29] = test system: sudan grass, green foxtail, barnyard grass and pigweed; test: Enhancement of RoundUp Ultra (+/- ammonium sulfate) by succinic acid, 1 quart per acre; format: in vivo; details: footnote
# Description: as §1
# [30] = test system: cotton plants, DeltaPine NuCotn 33-b, open boll; test: Synergistic relationships between 5% caprylic/capric (c/c) and succinic acid: desiccation of cotton plants; format: in vivo; details: footnote
# Description: as §2
# [31] = 60 G/a, rating 1-5 per pot, 1% Emsorb, 0.3% Hasten
smiles,measurement,setting,value
"O=C([O-])c1ccccc1O.[Na+] [1.5% sodium salicylate, sodium salicylate]","Injury rating, Spray to drip","[1]; rating 1-5 per pot, three evaluations, 30% acetone, 0.3% Sylgard 309",56.2
same,"Injury rating, Average rating per pot","[1]; scale 1-5, spray to drip",3.51
"CCCCCCCC(=O)O [2% caprylic, caprylic acid]","Total Injury ratings, Total score",[2]; 60 G/a plus spray to drip,69.2
same,"Total injury ratings, 60 G/a","[2]; 60 G/a, 8 pots/treatment, 2 evaluations, rating 1-5 per pot, 1% Emsorb 6900",61
same,"Total injury ratings, Spray to drip","[2]; spray to drip, 2 pots/treatment, velvetleaf and foxtail, 1 evaluation",8.2
same,"Injury rating, total score for 2 evaluations, Total Rating",[3]; 60 G/a plus spray to drip,123.4
same,"Injury rating, total score for 2 evaluations, 60 G/a",[3]; [31],73.6
same,Average rating per pot,[3]; scale 1-5,4.11
same,"Injury rating, total score for 2 evaluations, Spray to drip",[3]; spray to drip,49.8
same,"Injury ratings of treated plants, day 1","[4]; 1 day after application, 6 = complete desiccation",5
same,"Injury ratings of treated plants, day 3","[4]; 3 days after application, 6 = complete desiccation",5
same,"Injury ratings of treated plants, day 6","[4]; 6 days after application, 6 = complete desiccation",5
same,"Injury ratings of treated plants, day 17","[4]; 17 days after application, 6 = complete desiccation",5
same,"Injury ratings of treated plants, day 22","[4]; 22 days after application, 6 = complete desiccation",5.5
same,"Injury ratings of treated plants, day 27","[4]; 27 days after application, 6 = complete desiccation",5.5
same,"Injury ratings of treated plants, […]","[4]; […] after application, 6 = complete desiccation",3.5
same,All evaluations (total score),[4]; total of all evaluation times,34.5
"CCCCCCCC/C=C\CCCCCCCC(=O)O [2% oleic acid, oleic acid]","Total Injury rating, Total",[5]; 60 G/a plus spray to drip,45.8
same,"Total Injury rating, 60 G/a","[5]; 60 G/a, lambsquarter, foxtail and velvetleaf, rating 1-5 per pot, two evaluations",23.5
same,Average rating per pot,"[5]; scale 1-5, 60 G/a and spray to drip",1.91
same,Total injury rating (sum over pots and evaluations),"[6]; rating 1-5 per pot, two evaluations, 50% acetone, 0.3% Sylgard 309",26.4
same,"Injury rating, Average rating per pot","[6]; scale 1-5, spray to drip",2.2
"CCCCCCCCC(=O)O [3% pelargonic, pelargonic acid]",Average injury rating per plot,[7],4.03
same,"Injury rating, total score for 2 evaluation, Total Rating",[8]; 60 G/a plus spray to drip,122.9
same,"Injury rating, total score for 2 evaluation, 60 G/a",[8]; [31],85.3
same,Average rating per pot,[8]; scale 1-5,4.39
same,"Injury rating, total score for 2 evaluation, Spray to drip",[8]; spray to drip,37.6
same,Average injury rating per plot,[9],4.175
CCCCCCCCC(=O)O [6% pelargonic],Average injury rating per plot,[10],4.35
CCCCCCCC(=O)O [Caprylic Acid (1.0%)],"Overall Effect, 10 Evaluations (average)",[11],2.45
same,Foliage Affected (%),[12],22.3%
same,Overall Effect,[12],4
same,Overall Effect,[13],2
same,"Overall Effect, 29 Evaluations (average)",[14],1.05
same,pH Value,[15],3.85
same,pH Value,[16],3.93
O=C([O-])c1ccccc1O.[Na+] [Sodium Salicylate (1%)],Foliage Affected (%),[17],15-20%
same,Overall Effect,[17]; 5 equals profound desiccation,1.5
same,"Overall effect, 17 evaluations (average)",[18],1.35
O=C([O-])c1ccccc1O.[Na+] [Sodium Salicylate (1.0%)],Overall Effect,[13],1.5
same,Foliage Affected (%),[19],<70%
same,pH Value,[16],5.63
O=C(O)CCC(=O)O [Succinic Acid (0.5)],Overall Effect,[13],0
O=C(O)CCC(=O)O [Succinic Acid (1.0%)],Foliage Affected (%),[12],0%
same,Overall Effect,[12],0
same,Foliage Affected (%),[19],No effect
same,pH Value,[16],1.85
O=C(O)CCC(=O)O [Succinic Acid (2%)],"Overall effect, 17 evaluations (average)",[18],0.24
O=C(O)CCC(=O)O [succinic acid],Rating of succinic acid alone,[20],"Treatment of plants with succinic acid, alone, had a rating of zero"
same,Rating of succinic acid alone,[8]; footnote,"Succinic acid, alone, had a rating of zero. Succinic acid was synergistic with oleic, caprylic and pelargonic acids"
same,Rating of succinic acid alone,[21],"Treatment of plants with succinic acid, alone, had a rating of zero"
same,Rating of succinic acid tested alone,[22],"Since succinic acid tested alone had a rating of zero, caprylic/capric + succinic acid was synergistic"
same,Rating of succinic acid alone,[23],"Succinic acid, alone, had a rating of zero. Caprylic acid + succinic acid was synergistic"
same,Rating of succinic acid tested alone,[24],"Succinic acid tested alone had a rating of zero. RoundUp Ultra, alone or RoundUp Ultra + ammonia sulfate were synergistic with succinic acid"
same,Rating of additive tested alone,[25],"Since succinic acid (or ammonium succinate) tested alone had a rating of zero, pelargonic acid (or c/c) + succinic acid (or ammonium succinate) were synergistic. The exception was: 3% pelargonic acid + 1.26% ammonium succinate"
same,Rating of succinic acid alone,[26],"Succinic acid, alone, had a rating of zero. Succinic acid was synergistic with oleic, caprylic and pelargonic acids"
same,Rating of succinic acid alone,[27],"Since succinic acid, alone had a rating of zero, caprylic/capric + succinic acid was synergistic"
same,Rating of succinic acid tested alone,[28],"Succinic acid tested alone had a rating of zero. RoundUp Ultra, alone or RoundUp Ultra + ammonium sulfate were synergistic with succinic acid."
same,Rating of succinic acid tested alone,[29],"Succinic acid tested alone had a rating of zero. RoundUp Ultra, alone or RoundUp Ultra + ammonium sulfate were synergistic with succinic acid"
same,Rating of succinic acid alone,[30],"Treatment of plants with succinic acid, alone, had a rating of zero"
